{"source": "paper PMC2714806", "about": "(2009)", "key": {"[1]": {"format": "physicochemical", "conditions": "pH 6.5"}, "[2]": {"format": "physicochemical", "conditions": "pH 6.5", "remark": "listed apart in the source"}, "[3]": {"format": "binding", "conditions": "pH 6.5"}, "[4]": {"format": "binding", "conditions": "pH 6.5", "remark": "listed apart in the source"}, "[5]": {"system": "NR1b/2A NMDA receptor", "format": "cell-based", "conditions": "pH 7.35"}, "[6]": {"system": "NR1b/2B NMDA receptor", "format": "cell-based", "conditions": "pH 7.35"}, "[7]": {"system": "NR1b/2A and NR1b/2B NMDA receptors", "format": "cell-based", "conditions": "40 µM"}, "[8]": {"system": "NR1a/NR2A-, NR1a/NR2B-, NR1b/NR2A-, and NR1b/NR2B-containing receptors", "conditions": "cited from earlier work"}, "[9]": {"system": "NMDA receptor", "conditions": "cited from earlier work"}}, "note": "Where “and” joins values, the source holds several entries; their conditions need not be identical. Equal values may be shown once. Entries after “also recorded” stand apart in the source; their conditions may differ. Ends that are not written are not given here."}
{"substance": "con-T[γ4E,K7γ,V17γ] [con-T-tri]", "values": [{"measurement": "helicity (in words)", "setting": "[1]", "result": "marginal helicity; also recorded: high percentage of helix content; also recorded: negligible helicity; also recorded: highly helical character"}, {"measurement": "MWapp (apparent molecular weight)", "setting": "[2]", "result": "3320 ± 300 and 6490 ± 450 and 3460 ± 190"}, {"measurement": "self-association", "setting": "[2]", "result": "did not result in marked self-association"}, {"measurement": "Kd", "setting": "[3]", "result": 26, "unit": "µM"}, {"measurement": "n (stoichiometry of metal ion binding)", "setting": "[4]", "result": 1.0}, {"measurement": "effect on NMDA-evoked current", "setting": "[5]", "result": "current potentiation; also recorded: Potentiation of currents"}, {"measurement": "effect on NMDA-evoked current", "setting": "[6]", "result": "modest inhibitory activity"}, {"measurement": "NR2A-/NR2B-selectivity", "setting": "[7]", "result": "NR2B selective"}]}
{"substance": "con-T[M8N]: Met8-substituted con-T peptide (GEEEYQKNLENLREAEVKKNA; ends and bridges not checked; UniProt P17684 1-21, looked up, variant M8N)", "values": [{"measurement": "NR2A-/NR2B-selectivity", "setting": "[8]", "result": "non-selective"}]}
{"substance": "con-T: naturally-occurring conantokin derived from Conus tulipa (GEEEYQKMLENLREAEVKKNA; ends and bridges not checked; UniProt P17684 1-21, looked up)", "values": [{"measurement": "antagonism of NMDA receptor activity", "setting": "[8]; 40 µM", "result": "completely antagonizes NMDA receptor activity at all subunit combinations"}, {"measurement": "inhibition of current flow through the NMDA receptor", "setting": "[9]", "result": "potent and selective inhibitor of current flow through the NMDA receptor"}]}
{"substance": "GEγγYQγMLγNLRγAEVKKNA-NH2 [con-T[K7γ]]", "values": [{"measurement": "inhibition of ion flow through NMDA receptor complexes", "setting": "[9]", "result": "potent and specific inhibitors"}]}
